Data: the NIST ThermoML archive (doi:10.1016/j.jct.2013.09.039)

Conditions: Liquid, Vibrating tube method

Cc1ccc(C)cc1 [1,4-dimethylbenzene]
mass density [kg/m3]
Conditions	100 kPa	5000 kPa	10000 kPa	20000 kPa	30000 kPa	40000 kPa
288.15 K	864.9	868.3	871.8	878.1	884	889.7
298.15 K	856.2	860.2	863.5	870.1	876.5	882.2
308.15 K	847.5	851.4	855.2	862.1	868.6	874.8
